Source: patent US20090023704A1, “Novel Compounds 737” (ASTRAZENECA AB, priority 2007, published 2009)

These compounds were tested against T1, GABAB receptor (GABABR1a/GABABR2 heterodimer) (Homo sapiens, UniProt O75899+Q9UBS5) (assay: [35S]-GTPγS binding assay, potency of PAM (GABA dose-response curves with and without test compound)). Details: potency of the positive allosteric modulator; GABA dose-response in presence of test compound.
T1 construct: expressed in transfected cells
Type: biochemical
Excerpt: GABABR1a and GABABR2 were cloned from human brain cDNA and subcloned into pCI-Neo (Promega) and pALTER-1 (Promega), respectively. A GABABR1a-Gαqi5 fusion protein expression vector was constructed using the pCI-Neo-GABABR1a cDNA plasmid and pLEC1-Gαqi5 (Molecular Devices, CA). In order to make the Gαqi5 pertussis toxin insensitive, Cys356 was mutated to Gly using standard PCR methodology with the primers 5′-[…]-3′ (forward) and 5′-GCGGCCG […]-3′ (reverse). The Gαqi5mut cDNA was ligated into the BamHI and NotI sites of pcDNA3.0 (Invitrogen). The GABAB R1a coding sequence was amplified by PCR from pCI-Neo-GABABR1a using the primers, 5′-[…]-3′ (forward) and 5′-[…]-3′ (reverse) and subcloned into the BamHI site of pcDNA3.0-Gαqi5mut.
For generation of a cell line expressing the GABABR1a/GABABR2 heterodimer, GABABR1a plasmid DNA (4 μg) GABABR2 plasmid DNA (4 μg) and lipofectamine (24 μl) were mixed in 5 ml OptiMEM and incubated for 45 minutes at room temperature. The cells were exposed to the transfection medium for 5 hours, which then was replaced with culture medium. The cells were cultured for an additional 10 days before selection agents (300 μg/ml hygromycin and 400 μg/ml geneticin) were added. Twenty-four days after transfection, single cell sorting into 96-well plates by flow cytometry was performed using a FACS Vantage SE (Becton Dickinson, Palo Alto, Calif.). After expansion, the GABAB receptor functional response was tested using the FLIPR assay described below. The clone with the highest functional response was collected, expanded and then subcloned by single cell sorting. The clonal cell line with the highest peak response in the FLIPR was used in the present study.
For generation of a stable cell line expressing GABABR1a-Gαqi5 fusion protein and GABABR2, GABABR1a-Gαqi5mut plasmid DNA (8 μg) GABABR2 plasmid DNA (8 μg) and lipofectamine (24 μl) were mixed in 5 ml OptiMEM and incubated for 45 minutes at room temperature. The cells were exposed to the transfection medium for 5 hours, which then was replaced with culture medium. After forty-eight hours, the cells were detached and seeded in 6 well plates (2000 cells/well) and grown in culture medium supplemented with geneticin (400 μg/ml) and zeocin (250 μg/ml). After 4 days, cells from single colonies were collected and transferred to a 24-well plate. After 10 days, the cell clones were seeded in T-25 flasks and grown for another 16 days before they were tested for GABAB receptor mediated functional response. […] The clonal cell line that gave the highest peak response in the FLIPR was used in the present study.
[^35S]-GTPγS binding assays were performed at 30° C. for 45 min in membrane buffer (100 mM NaCl, 5 mM MgCl2, 1 mM EDTA, 50 mM HEPES, pH 7.4) containing 0.025 μg/μl of membrane protein (prepared from the cell lines described above) with 0.01% bovine serum albumin (fatty acid free), 10 μM GDP, 10 μM DTT and 0.53 nM [^35S]-GTPγS (Amersham-Pharmacia Biotech) in a final volume of 200 μl. Non-specific binding was determined in the presence of 20 μM GTPγS. The reaction was started by the addition of GABA at concentration between 1 mM and 0.1 nM in the presence or absence of the required concentration of PAM. The reaction was terminated by addition of ice-cold wash buffer (50 mM Tris-HCl, 5 mM MgCl2, 50 mM NaCl, pH 7.4) followed by rapid filtration under vacuum through Printed Filtermat A glass fiber filters (Wallac) (0.05% PEI treated) using a Micro 96 Harvester (Skatron Instruments). The filters were dried for 30 min at 50° C., then a paraffin scintillant pad was melted onto the filters and the bound radioactivity was determined using a 1450 Microbeta Trilux (Wallac) scintillation counter.
GABA dose-response curves in the presence and absence of test compounds were constructed using the 4-parameter logistic equation, y=ymax+((ymin−ymax)/1+(x/C)^D), where C=EC50 and D=slope factor.

T1 sequence (Q9UBS5 15-961 limits assumed): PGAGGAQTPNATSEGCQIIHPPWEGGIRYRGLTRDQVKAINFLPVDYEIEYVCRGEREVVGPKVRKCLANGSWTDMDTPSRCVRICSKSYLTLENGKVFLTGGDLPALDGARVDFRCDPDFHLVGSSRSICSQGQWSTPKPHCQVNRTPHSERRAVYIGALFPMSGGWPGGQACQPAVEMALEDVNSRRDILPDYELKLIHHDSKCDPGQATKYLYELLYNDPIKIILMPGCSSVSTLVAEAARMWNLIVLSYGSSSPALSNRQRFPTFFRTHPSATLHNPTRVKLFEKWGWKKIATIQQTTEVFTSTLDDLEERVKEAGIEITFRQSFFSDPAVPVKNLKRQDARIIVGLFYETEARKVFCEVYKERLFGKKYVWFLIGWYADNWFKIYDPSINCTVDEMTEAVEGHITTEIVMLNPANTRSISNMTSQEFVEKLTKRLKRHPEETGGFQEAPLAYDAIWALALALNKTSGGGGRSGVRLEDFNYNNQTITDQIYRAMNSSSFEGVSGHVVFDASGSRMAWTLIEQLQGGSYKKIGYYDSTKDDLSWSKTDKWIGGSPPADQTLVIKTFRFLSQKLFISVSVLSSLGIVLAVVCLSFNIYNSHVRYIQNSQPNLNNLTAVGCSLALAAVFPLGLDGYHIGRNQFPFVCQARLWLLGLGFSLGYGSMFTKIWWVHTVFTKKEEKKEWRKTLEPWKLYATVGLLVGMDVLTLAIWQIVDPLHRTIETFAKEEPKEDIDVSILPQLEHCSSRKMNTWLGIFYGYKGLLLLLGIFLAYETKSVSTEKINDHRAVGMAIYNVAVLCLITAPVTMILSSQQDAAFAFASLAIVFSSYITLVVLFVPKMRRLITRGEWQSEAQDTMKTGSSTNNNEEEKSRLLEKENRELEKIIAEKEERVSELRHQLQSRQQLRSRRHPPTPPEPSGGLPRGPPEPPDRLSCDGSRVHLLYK
T1 sequence (O75899 42-941): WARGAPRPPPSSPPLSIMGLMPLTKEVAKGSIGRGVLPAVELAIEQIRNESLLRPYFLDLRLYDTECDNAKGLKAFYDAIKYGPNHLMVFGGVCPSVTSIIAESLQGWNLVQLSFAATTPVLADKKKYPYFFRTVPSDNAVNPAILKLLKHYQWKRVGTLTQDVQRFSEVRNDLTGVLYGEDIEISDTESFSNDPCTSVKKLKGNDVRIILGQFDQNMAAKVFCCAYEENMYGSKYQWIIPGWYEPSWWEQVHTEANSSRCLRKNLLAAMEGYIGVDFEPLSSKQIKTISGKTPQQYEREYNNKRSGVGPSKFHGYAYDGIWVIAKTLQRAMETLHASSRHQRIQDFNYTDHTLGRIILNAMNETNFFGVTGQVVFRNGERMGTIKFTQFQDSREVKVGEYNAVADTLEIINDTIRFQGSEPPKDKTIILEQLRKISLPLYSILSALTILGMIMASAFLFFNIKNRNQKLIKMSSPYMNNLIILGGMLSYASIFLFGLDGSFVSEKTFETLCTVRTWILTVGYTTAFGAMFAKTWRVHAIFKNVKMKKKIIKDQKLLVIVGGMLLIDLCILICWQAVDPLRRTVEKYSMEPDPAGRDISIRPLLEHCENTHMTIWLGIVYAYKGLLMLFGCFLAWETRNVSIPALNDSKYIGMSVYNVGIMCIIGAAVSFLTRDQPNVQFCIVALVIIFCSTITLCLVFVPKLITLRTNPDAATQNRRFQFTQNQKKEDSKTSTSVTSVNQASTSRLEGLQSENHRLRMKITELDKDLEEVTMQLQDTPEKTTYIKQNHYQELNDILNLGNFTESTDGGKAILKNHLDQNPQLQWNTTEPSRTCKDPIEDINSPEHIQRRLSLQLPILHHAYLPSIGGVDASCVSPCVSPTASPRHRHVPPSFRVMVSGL

Structure (SMILES) | EC50
CCCn1c(=O)n(Cc2ccc(C(F)(F)F)cc2)c(=O)c2c1nc(CC)n2C [Example 62, 8-Ethyl-7-methyl-3-propyl-1-[4-(trifluoromethyl)benzyl]-3,7-dihydro-1H-purine-2,6-dione] | 5.7 µM
CCc1nc2c(c(=O)n(Cc3ccc(Cl)cc3)c(=O)n2C[C@H]2CCC(=O)N2)n1C [Example 6, 1-(4-Chlorobenzyl)-8-ethyl-7-methyl-3-{[(2R)-5-oxopyrrolidin-2-yl]methyl}-3,7-dihydro-1H-purine-2,6-dione] | 16.4 µM
CCc1nc2c(c(=O)n(Cc3ccc(Cl)cc3)c(=O)n2Cc2ccc(OC(F)F)cc2)n1C [Example 19, 1-(4-Chlorobenzyl)-3-[4-(difluoromethoxy)benzyl]-8-ethyl-7-methyl-3,7-dihydro-1H-purine-2,6-dione] | 3.7 µM
CCc1nc2c(c(=O)n(Cc3ccc(Cl)c(Cl)c3)c(=O)n2CC[Si](C)(C)C)n1C [Example 43, 1-(3,4-Dichlorobenzyl)-8-ethyl-7-methyl-3-[2-(trimethylsilyl)ethyl]-3,7-dihydro-1H-purine-2,6-dione] | 2.7 µM
CCCn1c(=O)n(Cc2ccc(Cl)cc2)c(=O)c2c1nc(C(C)O)n2C (stereo not drawn) [Example 96, 1-(4-chlorobenzyl)-8-(1-hydroxyethyl)-7-methyl-3-propyl-3,7-dihydro-1H-purine-2,6-dione] | 12.2 µM
CCCn1c(=O)n(Cc2ccc(Cl)cc2)c(=O)c2c1nc(CC)n2-c1ccc(F)cc1 [Example 74, 1-(4-Chlorobenzyl)-8-ethyl-7-(4-fluorophenyl)-3-propyl-3,7-dihydro-1H-purine-2,6-dione] | 9.9 µM
CCc1nc2c(c(=O)n(Cc3ccc(Cl)cc3)c(=O)n2CC(=O)N2CCC(F)(F)C2)n1C [Example 50, 1-(4-Chlorobenzyl)-3-[2-(3,3-difluoropyrrolidin-1-yl)-2-oxoethyl]-8-ethyl-7-methyl-3,7-dihydro-1H-purine-2,6-dione] | 10 µM
CCc1nc2c(c(=O)n(Cc3ccc(Cl)cc3)c(=O)n2C[Si](C)(C)C)n1C [Example 9, 1-(4-Chlorobenzyl)-8-ethyl-7-methyl-3-[(trimethylsilyl)methyl]-3,7-dihydro-1H-purine-2,6-dione] | 2.1 µM
CCCn1c(=O)n(Cc2ccc(C(C)C)cc2)c(=O)c2c1nc(CC)n2C [Example 70, 8-Ethyl-1-(4-isopropylbenzyl)-7-methyl-3-propyl-3,7-dihydro-1H-purine-2,6-dione] | 6.1 µM
CCc1nc2c(c(=O)n(Cc3ccc(Cl)cc3)c(=O)n2CCCO)n1C [Example 38, 1-(4-chlorobenzyl)-8-ethyl-3-(3-hydroxypropyl)-7-methyl-3,7-dihydro-1H-purine-2,6-dione] | 6.8 µM
CCc1nc2c(c(=O)n(Cc3ccc(Cl)cc3)c(=O)n2Cc2ccc(S(C)(=O)=O)cc2)n1C [Example 22, 1-(4-chlorobenzyl)-8-ethyl-7-methyl-3-[4-(methylsulfonyl)benzyl]-3,7-dihydro-1H-purine-2,6-dione] | 2.5 µM
CCc1nc2c(c(=O)n(Cc3ccc(Cl)c(Cl)c3)c(=O)n2CC(=O)[C@]23C[C@@H]4C[C@H](C[C@@H](C4)C2)C3)n1C [Example 42, 3-{2-[(3S,5S,7S)-Adamantan-1-yl]-2-oxoethyl}-1-(3,4-dichlorobenzyl)-8-ethyl-7-methyl-3,7-dihydro-1H-purine-2,6-dione] | 11.3 µM
CCc1nc2c(c(=O)n(Cc3ccc(Cl)cc3)c(=O)n2CCOC)n1C [Example 32, 1-(4-chlorobenzyl)-8-ethyl-3-(2-methoxyethyl)-7-methyl-3,7-dihydro-1H-purine-2,6-dione] | 7.9 µM
CCc1nc2c(c(=O)n(Cc3ccc(Cl)cc3)c(=O)n2CCCn2ccnc2)n1C [Example 49, 1-(4-Chlorobenzyl)-8-ethyl-3-[3-(1H-imidazol-1-yl)propyl]-7-methyl-3,7-dihydro-1H-purine-2,6-dione] | 13.4 µM
CCCn1c(=O)n(Cc2ccc(Cl)cc2)c(=O)c2c1nc(N1CCCCC1)n2C [Example 85, 1-(4-chlorobenzyl)-7-methyl-8-piperidin-1-yl-3-propyl-3,7-dihydro-1H-purine-2,6-dione] | 1.9 µM
CCc1nc2c(c(=O)n(Cc3ccc(Cl)cc3)c(=O)n2CC(=O)OC(C)(C)C)n1C [Example 35, tert-butyl [1-(4-chlorobenzyl)-8-ethyl-7-methyl-2,6-dioxo-1,2,6,7-tetrahydro-3H-purin-3-yl]acetate] | 5.6 µM
CCc1nc2c(c(=O)n(Cc3ccc(Cl)cc3)c(=O)n2CC(=O)c2ccncc2)n1C [Example 7, 1-(4-Chlorobenzyl)-8-ethyl-7-methyl-3-(2-oxo-2-pyridin-4-ylethyl)-3,7-dihydro-1H-purine-2,6-dione] | 7.9 µM
CCc1nc2c(c(=O)n(Cc3ccc(Cl)cc3)c(=O)n2Cc2ccc(-n3cccn3)cc2)n1C [Example 26, 1-(4-chlorobenzyl)-8-ethyl-7-methyl-3-[4-(1H-pyrazol-1-yl)benzyl]-3,7-dihydro-1H-purine-2,6-dione] | 3.5 µM
CCc1nc2c(c(=O)n(Cc3ccc(Cl)cc3)c(=O)n2CCn2cccc2)n1C [Example 37, 1-(4-chlorobenzyl)-8-ethyl-7-methyl-3-[2-(1H-pyrrol-1-yl)ethyl]-3,7-dihydro-1H-purine-2,6-dione] | 1.7 µM
CCc1nc2c(c(=O)n(Cc3ccc(Cl)cc3)c(=O)n2CCCN2CCCC2)n1C [Example 46, 1-(4-chlorobenzyl)-8-ethyl-7-methyl-3-(3-pyrrolidin-1-ylpropyl)-3,7-dihydro-1H-purine-2,6-dione] | 16.9 µM
CCc1nc2c(c(=O)n(Cc3ccc(Cl)cc3)c(=O)n2CC(=O)N(C(C)C)C(C)C)n1C [Example 51, 2-[1-(4-Chlorobenzyl)-8-ethyl-7-methyl-2,6-dioxo-1,2,6,7-tetrahydro-3H-purin-3-yl]-N,N-diisopropylacetamide] | 11.9 µM
CCc1nc2c(c(=O)n(Cc3ccc(Cl)cc3)c(=O)n2CC(=O)c2ccccc2)n1C [Example 28, 1-(4-chlorobenzyl)-8-ethyl-7-methyl-3-(2-oxo-2-phenylethyl)-3,7-dihydro-1H-purine-2,6-dione] | 2.6 µM
CCCn1c(=O)n(Cc2ccc(Cl)cc2)c(=O)c2c1nc(Br)n2C [Example 95, 8-bromo-1-(4-chlorobenzyl)-7-methyl-3-propyl-3,7-dihydro-1H-purine-2,6-dione] | 4.5 µM
CCc1nc2c(c(=O)n(Cc3ccc(Cl)c(Cl)c3)c(=O)n2CCC(C)(C)C)n1C [Example 41, 1-(3,4-Dichlorobenzyl)-3-(3,3-dimethylbutyl)-8-ethyl-7-methyl-3,7-dihydro-1H-purine-2,6-dione] | 2 µM
COc1nc2c(c(=O)n(Cc3ccc(Cl)cc3)c(=O)n2CCC(F)(F)F)n1C [Example 80, 1-(4-chlorobenzyl)-8-methoxy-7-methyl-3-(3,3,3-trifluoropropyl)-3,7-dihydro-1H-purine-2,6-dione] | 5.2 µM
CCCn1c(=O)n(Cc2ccc(Cl)cc2)c(=O)c2c1nc(N1CCC[C@H]1CN1CCCC1)n2C [Example 94, 1-(4-chlorobenzyl)-7-methyl-3-propyl-8-[(2S)-2-(pyrrolidin-1-ylmethyl)pyrrolidin-1-yl]-3,7-dihydro-1H-purine-2,6-dione] | 9 µM
CCc1nc2c(c(=O)n(Cc3ccc(Cl)cc3)c(=O)n2CC2CCCCC2)n1C [Example 20, 1-(4-Chlorobenzyl)-3-(cyclohexylmethyl)-8-ethyl-7-methyl-3,7-dihydro-1H-purine-2,6-dione] | 3 µM
